Activity calls are given as the source filed them. The calls are words filed in the database; no cut-off is given here.

Series [1] in a line: Hepatotoxicity in Balb/c mouse infected with Trypanosoma cruzi MHOM/Pe/2011/Arequipa DTU 5 trypomastigotes assessed as increase in alkaline phosphatase level at 20 mg/kg, po once daily for 5 consecutive days starting from day 75 post infection measured on day 127 post infection relative to control. Format: toxicity, organism-based. Conditions: in vivo.
Series [2] can be described thus: Hepatotoxicity in Balb/c mouse infected with Trypanosoma cruzi MHOM/Pe/2011/Arequipa DTU 5 trypomastigotes assessed as increase in ratio of serum ALT to GPT level at 20 mg/kg, po once daily for 5 consecutive days starting from day 75 post infection measured on day 81 post infection relative to control. Format: toxicity, organism-based. Conditions: in vivo.
Series [3] in a line: Hepatotoxicity in Balb/c mouse infected with Trypanosoma cruzi MHOM/Pe/2011/Arequipa DTU 5 trypomastigotes assessed as increase in total bilirubin level at 20 mg/kg, po once daily for 5 consecutive days starting from day 75 post infection measured on day 127 post infection relative to control. Type of series: toxicity, organism-based. Conditions: in vivo.
Series [4] has as its system Trypanosoma cruzi. Kind of series: Antitrypanosomal activity against Trypanosoma cruzi MHOM/Pe/2011/Arequipa DTU 5 trypomastigotes infected in Balb/c mouse assessed as parasite-free lungs at 20 mg/kg, po pretreated once daily for 5 consecutive days starting from day 75 post infection followed by cyclophosphamide-induced immunosuppression on day 100 post infection every 4 days for a maximum of 3 doses measured on day 127 post infection by PCR method. Type of series: functional, organism-based.

Series [5] has as its system Trypanosoma cruzi. In words: Antitrypanosomal activity against Trypanosoma cruzi MHOM/Pe/2011/Arequipa DTU 5 trypomastigotes infected in Balb/c mouse assessed as parasite-free brain at 20 mg/kg, po pretreated once daily for 5 consecutive days starting from day 75 post infection followed by cyclophosphamide-induced immunosuppression on day 100 post infection every 4 days for a maximum of 3 doses measured on day 127 post infection by PCR method. Format: functional, organism-based.

Series [6] can be described thus: Cardiotoxicity in Balb/c mouse infected with Trypanosoma cruzi MHOM/Pe/2011/Arequipa DTU 5 trypomastigotes assessed as change in serum LDH level at 20 mg/kg, po once daily for 5 consecutive days starting from day 75 post infection measured on day 81 post infection (reference value: 5951 U/L). The settings on record: in vivo. Format: toxicity, organism-based.
A short description of series [7]: Hepatotoxicity in Balb/c mouse infected with Trypanosoma cruzi MHOM/Pe/2011/Arequipa DTU 5 trypomastigotes assessed as decrease in total bilirubin level at 20 mg/kg, po once daily for 5 consecutive days starting from day 75 post infection measured on day 127 post infection relative to control. Format: toxicity, organism-based. Conditions: in vivo. Also on record: scale not given: the % may be the effect or the level left.

The test system of series [8] is Trypanosoma cruzi. Kind of series: Trypanocidal activity against Trypanosoma cruzi MHOM/Pe/2011/Arequipa DTU 5 amastigotes infected in African green monkey Vero cells assessed as infected cells at 50 uM after 72 hrs by Giemsa-staining based assay relative to control. Type of series: functional.
Series [9] has as its system Trypanosoma cruzi. Kind of series: Antitrypanosomal activity against Trypanosoma cruzi MHOM/Pe/2011/Arequipa DTU 5 trypomastigotes infected in Balb/c mouse assessed as reduction in parasitaemia level at 20 mg/kg, po once daily for 5 consecutive days starting from day 10 post infection measured every 2 to 3 days up to day 50 post infection starting from day 7 post infection by Neubauer chamber method. Format: functional, organism-based.

In series [10] the test system is Trypanosoma cruzi. In words: Inhibition of Trypanosoma cruzi MHOM/Pe/2011/Arequipa DTU 5 epimastigotes Fe-SOD at 50 uM by UV-Visible spectrophotometric method relative to control.
For series [11], the system named is Trypanosoma cruzi. Kind of series: Inhibition of Trypanosoma cruzi MHOM/Pe/2011/Arequipa DTU 5 epimastigotes Fe-SOD at 100 uM by UV-Visible spectrophotometric method relative to control.

In the case of `O=C(Cn1ccnc1[N+](=O)[O-])NCc1ccccc1` [BENZNIDAZOLE], the Activity entry in series [1], in series [2] and in series [3] was “<= 20%” each time.
On to `Cl.Cl.Cl.NCCN(CCN)CCNCc1ccc2c(c1)Cc1ccccc1-2`, for which the outcome in the series on Trypanosoma cruzi [4] and with Trypanosoma cruzi [5] was Active.
As for `Cl.Cl.Cl.Cl.Cl.Cl.c1ccc2nc(CNCCN(CCNCc3ccc4ccccc4n3)CCNCc3ccc4ccccc4n3)ccc2c1`, the figures for the Activity (in series [6]; in [7]; with Trypanosoma cruzi [8]) were 6679 U/L, “<= 10%” and 0%, respectively. Also, the outcome in the series on Trypanosoma cruzi [9] was inactive. Further, the inhibition (in general, how much of the control response was suppressed) in the series with Trypanosoma cruzi [10] is 82%; with Trypanosoma cruzi [11], 100%.

Source of the values: ChEMBL document CHEMBL4411300 (Eur J Med Chem, 2019).
